According to patent US20210177828A1, “TAM FAMILY KINASE /AND CSF1R KINASE INHIBITOR AND USE THEREOF” (Nanjing Transthera Biosciences Co., Ltd., priority 2018, published 2021):

Assays:
MDA-MB-231 cell pAxl = molecular target: T1, MDA-MB-231 cell pAxl (Homo sapiens, UniProt P30530); test: Inhibitory activity on cell pAxl, MDA-MB-231 cells, hGAS6 stimulation, Western Blot; format: cell-based; details: hGAS6 200 ng/mL
T1 construct: endogenous in cells; host or cells: MDA-MB-231
T1 sequence (P30530 26-894): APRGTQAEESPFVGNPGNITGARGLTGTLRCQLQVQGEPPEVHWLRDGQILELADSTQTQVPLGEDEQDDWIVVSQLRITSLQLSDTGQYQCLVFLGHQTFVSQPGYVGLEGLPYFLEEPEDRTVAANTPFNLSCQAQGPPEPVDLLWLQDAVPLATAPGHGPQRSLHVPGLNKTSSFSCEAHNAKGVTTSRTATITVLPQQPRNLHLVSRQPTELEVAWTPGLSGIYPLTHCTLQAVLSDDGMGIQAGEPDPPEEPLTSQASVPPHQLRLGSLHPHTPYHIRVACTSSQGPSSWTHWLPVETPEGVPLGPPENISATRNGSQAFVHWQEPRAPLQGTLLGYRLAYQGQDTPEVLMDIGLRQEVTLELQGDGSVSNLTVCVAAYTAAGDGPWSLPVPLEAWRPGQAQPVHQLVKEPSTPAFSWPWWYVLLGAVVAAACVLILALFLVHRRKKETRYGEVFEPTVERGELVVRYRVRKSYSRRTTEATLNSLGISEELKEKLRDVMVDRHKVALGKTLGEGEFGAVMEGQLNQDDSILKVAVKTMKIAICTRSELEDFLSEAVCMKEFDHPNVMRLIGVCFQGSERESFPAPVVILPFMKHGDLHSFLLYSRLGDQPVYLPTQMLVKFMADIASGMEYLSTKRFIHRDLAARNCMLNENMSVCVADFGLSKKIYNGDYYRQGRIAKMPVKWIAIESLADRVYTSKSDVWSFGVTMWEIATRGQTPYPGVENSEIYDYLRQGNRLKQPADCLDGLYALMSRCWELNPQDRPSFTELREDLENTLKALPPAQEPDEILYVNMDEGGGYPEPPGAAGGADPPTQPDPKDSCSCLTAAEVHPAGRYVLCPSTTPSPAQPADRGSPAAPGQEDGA
Experimental: MDA-MB-231 is a breast cancer cell.
MDA-MB-231 cells were inoculated to a 6-well plate (containing 10% FBS DMEM medium, […] cells per well) and adherently cultivated at 37° C., and 5% CO2 for 18 hrs. The cells were starved overnight, and then compound solutions with different concentrations were added. Compounds 1 and 2 had final concentrations of 1.1, 3.3 and 10 nM, and the remaining compounds had final concentrations of 1.1, 3.3, 10 and 30 nM. […] There was a medium containing 1‰DMSO in the negative control well. The cells were incubated at 37° C., and 5% CO2 for 60 min, and then hGAS6 (R&D, final concentration: 200 ng/mL) was added to each well. The cells were further incubated for 60 min, and then the total protein of the cells was extracted for Western Blot experiment. Gray analysis was performed on the results with Image J software, and IC50 values were calculated with GraphPad 5.0 software. The inhibitory activities of the compounds on cell pAxl were detected.

[1] = Liver microsomal stability; format: in vitro ADME; details: mouse liver microsomes, 0.5 mg protein/mL, 1 μM compound
Experimental: An appropriate amount of the compound was precisely weighed and dissolved in DMSO to prepare a 5.0 mM stock solution. The 5.0 mM stock solution was diluted with DMSO to 1.0 mM, and finally diluted with water to a 10 μM working solution of the test sample for use (the DMSO content in the reaction system was 0.1%).
(1) The liver microsomes (20 mg protein/mL) were taken from a −80° C. refrigerator, pre-incubated on a 37° C. water bath thermostatic oscillator for 3 min, and thawed for use.
(2) An incubation system (without compound and β-NADPH) was prepared according to “composition of the incubation system” described above, and pre-incubated on a 37° C. water bath thermostatic oscillator for 2 min.
(3) Control group (without β-NADPH): 30 μL of water and 30 μL of compound working solution (10 μM) were added to 240 μL of the incubation system in step (2), and the reaction system was vortexed for 30 s and thoroughly mixed. The total volume of the reaction system was 300 μL. The sample was duplicated. The reaction solution was placed on a 37° C. water bath thermostatic oscillator for incubation, and timing was started. The sampling was conducted at 0 min and 60 min.
(4) Sample group: 70 μL of β-NADPH solution (10 mM) and 70 μL of compound working solution (10 μM) were added to 560 μL of the incubation system in step (2), and the total volume of the reaction system was 700 μL. The reaction solution was vortexed for 30 s and thoroughly mixed. The sample was duplicated. The reaction solution was placed on a 37° C. water bath thermostatic oscillator for incubation, and timing was started. The sampling was conducted at 0 min, 5 min, 10 min, 20 min, 30 min and 60 min.
(5) The reaction solution was vortexed for 3 min, and centrifuged at 12,000 rpm for 5 min.
(6) 50 μL of the supernatant was added to 150 μL of water, and the resulting solution was thoroughly vortexed and analyzed by LC/MS/MS.

CSF1R (h) = CSF1R (h) (Homo sapiens, UniProt P07333); test: Enzymatic activity assay, CSF1R (h), [γ-33P]-ATP filter assay; format: biochemical; details: 10 μM ATP, 40 min room temperature; read-out: Inhibitory activity IC50 CSF1R(h)
Sequence of CSF1R (h) (P07333 20-972): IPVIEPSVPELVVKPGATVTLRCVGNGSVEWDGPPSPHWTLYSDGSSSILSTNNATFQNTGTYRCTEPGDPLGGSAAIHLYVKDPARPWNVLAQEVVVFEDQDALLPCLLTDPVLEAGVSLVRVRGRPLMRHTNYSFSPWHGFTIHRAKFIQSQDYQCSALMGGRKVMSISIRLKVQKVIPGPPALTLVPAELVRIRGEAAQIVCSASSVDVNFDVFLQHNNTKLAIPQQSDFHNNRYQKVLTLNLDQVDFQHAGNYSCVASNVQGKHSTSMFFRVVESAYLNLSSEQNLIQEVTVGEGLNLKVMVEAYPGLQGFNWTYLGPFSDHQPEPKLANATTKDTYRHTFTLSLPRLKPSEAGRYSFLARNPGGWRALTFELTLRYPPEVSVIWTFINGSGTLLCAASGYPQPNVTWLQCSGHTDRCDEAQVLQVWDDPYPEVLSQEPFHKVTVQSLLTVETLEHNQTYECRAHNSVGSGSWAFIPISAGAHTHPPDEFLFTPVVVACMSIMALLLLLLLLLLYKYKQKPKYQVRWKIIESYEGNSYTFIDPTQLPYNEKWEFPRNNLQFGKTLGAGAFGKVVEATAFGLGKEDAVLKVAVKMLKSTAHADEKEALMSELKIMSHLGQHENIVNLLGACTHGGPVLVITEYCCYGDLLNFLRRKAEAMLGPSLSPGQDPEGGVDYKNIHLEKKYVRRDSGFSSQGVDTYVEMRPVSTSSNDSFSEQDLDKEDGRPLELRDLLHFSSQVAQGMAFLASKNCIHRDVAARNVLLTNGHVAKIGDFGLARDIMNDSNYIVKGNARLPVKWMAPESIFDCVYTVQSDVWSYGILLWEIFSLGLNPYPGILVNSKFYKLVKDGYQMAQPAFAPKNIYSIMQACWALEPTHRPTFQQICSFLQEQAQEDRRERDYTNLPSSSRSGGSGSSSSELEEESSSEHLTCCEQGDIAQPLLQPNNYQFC
Experimental: Compounds were each dissolved in 100% DMSO to prepare stock solutions with a maximum concentration of 500 μM.
Compound working solutions (50×) were prepared by diluting a compound stock solution to a final concentration of 500, 150, 50, 15, 5, 1.5, 0.5, 0.15 and 0.05 μM.
An enzyme solution with a final concentration of 64 nM was prepared by dissolving CSF1R enzyme in a mixture of 8 mM MOPS (pH 7.0), 0.2 mM EDTA and 250 μM KKSRGDYMTMQIG. A Mg/ATP mixture of 10 mM magnesium acetate and 10 μM [γ-^33P]-ATP was used to activate the enzymatic reaction.
A compound working solution was added to a 384-well plate, with final concentrations of 10,000, 3,000, 1,000, 300, 100, 30, 10, 3 and 1 nM, and then different enzymatic reaction solutions prepared according to the above conditions were added. The reaction solutions were incubated at room temperature for 40 min, and then 0.5% phosphoric acid solutions were added to terminate the reaction. 10 μL of the reaction solution was added dropwise to P30 filter paper, washed 4 times with a 0.425% phosphoric acid solution and once with methanol, and then placed in a scintillation counter for detection. Gray analysis was performed on the results with Image J software, and IC50 values were calculated with GraphPad 5.0 software.

SMILES | IC50 (MDA-MB-231 cell pAxl) [µM] | half-life at 1 μM [1] [h] | microsomal CLint at 1 μM [1] [µL/min/mg] | IC50 (CSF1R (h)) [µM]
COc1cc2nccc(Oc3ccc(NC(=O)c4cn(CC5CCOCC5)cc(-c5ccc(C)cc5)c4=O)nc3)c2cc1OC [Compound 1, N-(5-((6,7-dimethoxyquinolin-4-yl)oxy)pyridin-2-yl)-4-oxo-1-((tetrahydro-2H-pyran-4-yl)methyl)-5-(p-tolyl)-1,4-dihydropyridin-3-carboxamide] | < 0.0011 |  |  | 
COc1cc2nccc(Oc3ccc(NC(=O)c4cn(CC5CC[S+]([O-])CC5)cc(-c5ccc(C)cc5)c4=O)nc3)c2cc1OC (stereo not drawn) [Compound 8, N-(5-((6,7-dimethoxyquinolin-4-yl)oxy)pyridin-2-yl)-1-((1-oxotetrahydro-2H-thiopyran-4-yl)methyl)-4-oxo-5-(p-tolyl)-1,4-dihydropyridin-3-carboxamide] | ≤ 0.001 | 3.22 | 7.2 | 
COc1cc2nccc(Oc3ccc(NC(=O)c4cn(CC5CCSCC5)cc(-c5ccc(C)cc5)c4=O)nc3)c2cc1OC [Compound 9, N-(5-((6,7-dimethoxyquinolin-4-yl)oxy)pyridin-2-yl)-4-oxo-1-((tetrahydro-2H-thiopyran-4-yl)methyl)-5-(p-tolyl)-1,4-dihydropyridin-3-carboxamide] | < 0.01 | 0.818 | 28.2 | 
COc1cc2nccc(Oc3ccc(NC(=O)c4cn(CC5CCOCC5)c5ccccc5c4=O)nc3)c2cc1OC [Compound 25, N-(5-((6,7-dimethoxyquinolin-4-yl)oxy)pyridin-2-yl)-4-oxo-1-((tetrahydro-2H-pyran-4-yl)methyl)-1,4-dihydroquinolin-3-carboxamide] | ≤ 0.503 |  |  | 
COc1cc2nccc(Oc3ccc(NC(=O)c4nn(C5CCOCC5)cc(-c5ccc(C)cc5)c4=O)cc3F)c2cc1OC [Compound 28] |  | 1.44 | 16 | < 0.2
COc1cc2nccc(Oc3ccc(NC(=O)c4cn(C5CCOCC5)cc(-c5ccc(F)cc5)c4=O)nc3)c2cc1OC [Compound 27, N-(5-((6,7-dimethoxyquinolin-4-yl)oxy)pyridin-2-yl)-5-(4-fluorophenyl)-4-oxo-1-(tetrahydro-2H-pyran-4-yl)-1,4-dihydropyridin-3-carboxamide] |  | 5.02 | 4.6 | < 0.2
COc1cc2nccc(Oc3ccc(NC(=O)c4cc(-c5ccc(C)cc5)cn(CC5CCOCC5)c4=O)nc3)c2cc1OC [Compound 13, N-(5-((6,7-dimethoxyquinolin-4-yl)oxy)pyridin 2yl)-2-oxo-1-((tetrahydro-2H-pyran-4-yl)methyl)-5-(p-tolyl)-1,2-dihydropyridin-3-carboxamide] | ≤ 0.0031 |  |  | 
Cc1ccc(-c2cn(C3CCOCC3)nc(C(=O)Nc3ccc(Oc4ccnc5cc6c(cc45)OCCO6)cn3)c2=O)cc1 [Compound 30, N-(5-((2,3-dihydro-[1,4]dioxino[2,3-g]quinolin-9-yl)oxy)pyridin-2-yl)-4-oxo-1-(tetrahydro-2H-pyran-4-yl)-5-(p-tolyl)-1,4-dihydropyridazin-3-carboxamide] |  | 1.38 | 16.8 | 
COc1cc2nccc(Oc3ccc(NC(=O)c4cn(C5CCOCC5)cc(-c5ccc(C)cc5)c4=O)nc3)c2cc1OC [Compound 19, N-(5-((6,7-dimethoxyquinolin-4-yl)oxy)pyridin-2-yl)-4-oxo-1-(tetrahydro-2H-pyran-4-yl)-5-(p-tolyl)-1,4-dihydropyridin-3-carboxamide] | < 0.0011 | 2.27 | 10.2 | 

Now from value to compound:

IC50 (MDA-MB-231 cell pAxl) [µM] | half-life at 1 μM [1] [h] | microsomal CLint at 1 μM [1] [µL/min/mg] | IC50 (CSF1R (h)) [µM] | SMILES
 | 1.39 | 16.6 | < 0.2 | COc1cc2nccc(Oc3ccc(NC(=O)c4cc(CC5CCOCC5)cn(-c5ccc(F)cc5)c4=O)nc3)c2cc1OC [Compound 32, N-(5-((6,7-dimethoxyquinolin-4-yl)oxy)pyridin-2-yl)-1-(4-fluorophenyl)-2-oxo-5-((tetrahydro-2H-pyran-4-yl)methy 1)-1,2-dihydropyridin-3-carboxamide]
 | 5.25 | 4.4 | < 0.2 | COc1cc2nccc(Oc3ccc(NC(=O)c4nn(C5CCOCC5)cc(-c5ccc(F)cc5)c4=O)nc3)c2cc1OC [Compound 34, N-(5-((6,7-dimethoxyquinolin-4-yl)oxy)pyridin-2-yl)-5-(4-fluorophenyl)-4-oxo-1-(tetrahydro-2H-pyran-4-yl)-1,4-dihydropyridazin-3-carboxamide]
≤ 0.0011 |  |  |  | COc1cc2nccc(Oc3ccc(NC(=O)c4cn(CC5CCS(=O)(=O)CC5)cc(-c5ccc(C)cc5)c4=O)nc3)c2cc1OC [Compound 7, N-(5-((6,7-dimethoxyquinolin-4-yl)oxy)pyridin-2-yl)-1-((1,1-dioxotetrahydro-2H-thiopyran-4-yl)methyl)-4-oxo-5-(p-tolyl)-1,4-dihydropyridin-3-carboxamide]
 | 1.6 | 14.4 |  | Cc1ccc(-c2cn(C3CCOCC3)nc(C(=O)Nc3ccc(Oc4ccnc5cc6c(cc45)OCO6)cn3)c2=O)cc1 [Compound 29, N-(5-([1,3]dioxolo[4,5-g]quinolin-8-yloxy)pyridin-2-yl)-4-oxo-1-(tetrahydro-2H-pyran-4-yl)-5-(p-tolyl)-1,4-dihydropyridazin-3-carboxamide]
< 0.01 |  |  |  | COc1cc2nccc(Oc3ccc(NC(=O)c4cn(CC5CCOCC5)cc(-c5ccc(C)cc5)c4=O)nn3)c2cc1OC [Compound 24, N-(6-((6,7-dimethoxyquinolin-4-yl)oxy)pyridazin-3-yl)-4-oxo-1-((tetrahydro-2H-pyran-4-yl)methyl)-5-(p-tolyl)-1,4-dihydropyridin-3-carboxamide]
